Measured values as given in the NIST ThermoML archive (doi:10.1021/je5010214).

Conditions: Liquid, Vibrating tube method

CC(C)CO [2-methyl-1-propanol]
Conditions | mass density [kg/m3]
283.15 K, 89.4 kPa | 809.726
283.15 K, 478.2 kPa | 810.123
283.15 K, 489.9 kPa | 810.142
283.15 K, 930.2 kPa | 810.437
283.15 K, 1027.3 kPa | 810.557
283.15 K, 2172.1 kPa | 811.348
283.15 K, 2992.9 kPa | 811.865
283.15 K, 4993.8 kPa | 813.245
283.15 K, 6906.9 kPa | 814.669
283.15 K, 8995.7 kPa | 816.167
283.15 K, 10003 kPa | 816.885
283.15 K, 12183 kPa | 818.287
283.15 K, 14910 kPa | 820.439
283.15 K, 17915 kPa | 822.056
283.15 K, 20110 kPa | 823.875
283.15 K, 22168 kPa | 825.177
283.15 K, 24886 kPa | 826.625
283.15 K, 27713 kPa | 828.29
283.15 K, 30148 kPa | 829.717
283.15 K, 32117 kPa | 830.745
283.15 K, 33086 kPa | 831.522
283.15 K, 33288 kPa | 831.507
283.15 K, 34077 kPa | 832.073
283.15 K, 35107 kPa | 832.469
283.15 K, 38030 kPa | 834.322
283.15 K, 44591 kPa | 837.752
283.15 K, 54994 kPa | 843.308
283.15 K, 57756 kPa | 844.723
283.15 K, 59886 kPa | 845.575
283.15 K, 61822 kPa | 846.524
283.15 K, 64894 kPa | 848.158
283.16 K, 289.9 kPa | 810.056
283.16 K, 39967 kPa | 835.34
283.16 K, 41406 kPa | 835.909
283.16 K, 48034 kPa | 839.7
283.16 K, 49830 kPa | 840.462
283.16 K, 51952 kPa | 841.796
283.16 K, 66072 kPa | 848.566
288.15 K, 85.3 kPa | 806.159
288.15 K, 351.1 kPa | 806.381
288.15 K, 718.6 kPa | 806.519
288.15 K, 928.3 kPa | 806.632
288.15 K, 1132.3 kPa | 807.006
288.15 K, 1931.6 kPa | 807.42
288.15 K, 3433.9 kPa | 808.429
288.15 K, 5023.9 kPa | 809.62
288.15 K, 6893.9 kPa | 810.983
288.15 K, 8406.4 kPa | 812.175
288.15 K, 12498 kPa | 814.345
288.15 K, 13061 kPa | 815.035
288.15 K, 15159 kPa | 815.414
288.15 K, 16159 kPa | 816.818
288.15 K, 17078 kPa | 817.715
288.15 K, 19062 kPa | 818.283
288.15 K, 20120 kPa | 819.399
288.15 K, 21983 kPa | 820.3
288.15 K, 22948 kPa | 821.319
288.15 K, 24955 kPa | 821.837
288.15 K, 31002 kPa | 825.774
288.15 K, 36056 kPa | 828.477
288.15 K, 38602 kPa | 829.859
288.15 K, 40698 kPa | 831.363
288.15 K, 42984 kPa | 832.313
288.15 K, 44991 kPa | 833.694
288.15 K, 46862 kPa | 834.848
288.15 K, 49740 kPa | 835.692
288.15 K, 53748 kPa | 837.321
288.15 K, 55203 kPa | 839.369
288.15 K, 60810 kPa | 841.135
288.15 K, 65611 kPa | 844.144
288.16 K, 549.3 kPa | 806.494
288.16 K, 9959.1 kPa | 813.184
288.16 K, 27092 kPa | 823.174
288.16 K, 29078 kPa | 824.509
288.16 K, 33729 kPa | 826.936
288.16 K, 57016 kPa | 840.129
288.16 K, 62338 kPa | 843.086
293.15 K, 63.4 kPa | 802.054
293.15 K, 194.5 kPa | 802.316
293.15 K, 662.6 kPa | 802.599
293.15 K, 5367.8 kPa | 806.019
293.15 K, 5979.3 kPa | 806.327
293.15 K, 8031.4 kPa | 807.842
293.15 K, 12279 kPa | 811.587
293.15 K, 16110 kPa | 814.191
293.15 K, 18001 kPa | 815.385
293.15 K, 30253 kPa | 822.999
293.15 K, 32967 kPa | 824.811
293.15 K, 42984 kPa | 830.218
293.15 K, 44913 kPa | 831.278
293.15 K, 47933 kPa | 833.008
293.15 K, 50078 kPa | 834.047
293.16 K, 310.4 kPa | 802.406
293.16 K, 463.5 kPa | 802.612
293.16 K, 1059.7 kPa | 802.921
293.16 K, 2037.1 kPa | 803.747
293.16 K, 2922 kPa | 804.089
293.16 K, 3431.5 kPa | 804.593
293.16 K, 5298.8 kPa | 805.894
293.16 K, 7111.4 kPa | 807.238
293.16 K, 9968.5 kPa | 809.474
293.16 K, 14057 kPa | 812.743
293.16 K, 20853 kPa | 817.066
293.16 K, 22118 kPa | 818.157
293.16 K, 24057 kPa | 819.188
293.16 K, 25922 kPa | 820.412
293.16 K, 27187 kPa | 821.228
293.16 K, 34602 kPa | 825.683
293.16 K, 38051 kPa | 827.567
293.16 K, 40103 kPa | 828.763
293.16 K, 52135 kPa | 835.387
293.16 K, 55036 kPa | 836.79
293.16 K, 58004 kPa | 838.271
293.16 K, 60107 kPa | 839.502
293.16 K, 62061 kPa | 840.325
293.16 K, 66037 kPa | 842.335
298.15 K, 122.4 kPa | 798.281
298.15 K, 162.6 kPa | 798.371
298.15 K, 405.5 kPa | 798.562
298.15 K, 632.8 kPa | 798.678
298.15 K, 956.4 kPa | 798.832
298.15 K, 6988.8 kPa | 803.491
298.15 K, 14555 kPa | 809.311
298.15 K, 18284 kPa | 812.068
298.15 K, 20164 kPa | 813.104
298.15 K, 22781 kPa | 814.894
298.15 K, 25076 kPa | 816.275
298.15 K, 27604 kPa | 817.904
298.15 K, 30046 kPa | 819.519
298.15 K, 32326 kPa | 821.055
298.15 K, 33317 kPa | 821.248
298.15 K, 44911 kPa | 827.946
298.15 K, 60006 kPa | 836.063
298.15 K, 62079 kPa | 837.121
298.15 K, 65330 kPa | 838.566
298.15 K, 66093 kPa | 839.052
298.16 K, 1152.2 kPa | 799.011
298.16 K, 2046.3 kPa | 799.798
298.16 K, 3021.1 kPa | 800.42
298.16 K, 5107.4 kPa | 801.927
298.16 K, 9044.3 kPa | 804.777
298.16 K, 9996.8 kPa | 805.681
298.16 K, 11947 kPa | 807.14
298.16 K, 33072 kPa | 821.357
298.16 K, 34997 kPa | 822.338
298.16 K, 37948 kPa | 823.936
298.16 K, 39972 kPa | 825.207
298.16 K, 41983 kPa | 826.345
298.16 K, 48045 kPa | 829.528
298.16 K, 49997 kPa | 830.783
298.16 K, 52020 kPa | 832.399
298.16 K, 54851 kPa | 833.381
298.16 K, 57898 kPa | 835.245
303.15 K, 50.6 kPa | 793.736
303.15 K, 974.4 kPa | 794.496
303.15 K, 1922.5 kPa | 795.367
303.15 K, 9012.3 kPa | 801.25
303.15 K, 10062 kPa | 802.346
303.15 K, 14908 kPa | 805.823
303.15 K, 18109 kPa | 808.133
